Reference: patent publication US20240245743A1, “USE OF CINNAMOMUM ZEYLANICUM ESSENTIAL OIL (EO) AS HUMAN MELANOMA CELLS DEATH INDUCER AND AS POSSIBLE ADJUVANT IN PHARMACOLOGICAL THERAPIES” (CONSIGLIO NAZIONALE DELLE RICERCHE, priority 2021, published 2024)

How the values were obtained:
[1] = features known in the art; cited from earlier work
M14 cells [2] = assay: Intracellular ROS analysis by FACS (H2DCF-DA); type: cell-based, human; details: EO 10 μg/ml for 24 hours; H2O2 5 mM
Description: The generation of ROS species (reactive oxygen species) was analysed by FACS, using the probe sensitive to the oxidant 2 ‘, 7’-dichlorodihydrofluorescein (H2DCF-DA). The C. zeylanicum EO was administered at a dose of 10 μg/ml for 24 hours. […] H2O2 at a concentration of 5 mM was used as a control for the generation of ROS.

[3] = rats; cited from earlier work
M14 cells [4] = assay: Colony formation assay; type: cell-based, human
Description: Ten days after seeding, a solution of 2% methylene blue in 95% ethanol was added to the obtained monolayer and incubated for at least 30 minutes. The plates were then washed with ddH2O and the colonies (at least 50 cells) were counted. The results were expressed as a percentage of colonies formed with respect to the number of cells seeded. Cell survival rate was calculated as % compared to control cells.

melanoma = details: phase III study; cited from earlier work
[5] = test system: advanced melanoma, untreated brain metastases, and other solid tumours; details: phase I study; cited from earlier work

O=c1ccc2ccccc2o1 [Coumarin]
toxicity (liver, kidney) / general safety [1]: can cause liver and kidney damage

OO [H2O2, hydrogen peroxide]
oxidative stress (intracellular ROS) in M14 cells compared with PBMCs (M14 cells [2]): greater oxidative stress

C=CCc1ccc2c(c1)OCO2 [Safrole]
carcinogenicity [3]: weak carcinogenicity

CC/C(=C(\c1ccccc1)c1ccc(OCCN(C)C)cc1)c1ccccc1 [TAM, Tamoxifen]
survival of M14 cells compared to control (M14 cells [4]; EO 10 μg/ml, TAM 0, 1 μM, 24 hours): no significant differences in survival compared to control

CC(=O)O[C@H]1C(=O)[C@@]2(C)[C@H]([C@H](OC(=O)c3ccccc3)[C@]3(O)C[C@H](OC(=O)[C@H](O)[C@@H](NC(=O)c4ccccc4)c4ccccc4)C(C)=C1C3(C)C)[C@]1(OC(C)=O)CO[C@@H]1C[C@@H]2O [Taxol, Paclitaxel]
induction of cell death in M14 cells (M14 cells [4]; 24 hours treatment, EO 10 μg/ml): less than 10%

O=CC=Cc1ccccc1 [cinnamaldehyde]
cell survival (colonies vs untreated control) (M14 cells [4]; M14 cells, 24 hours treatment): 64.3%

CC(C)(C)c1nc(-c2cccc(NS(=O)(=O)c3c(F)cccc3F)c2F)c(-c2ccnc(N)n2)s1 [dabrafenib]
ORR (objective response rate) (melanoma): 53%
median PFS (progression free survival) (melanoma): 5.1 months
ORR [5]: 47%
